For data set [1], the system named is Enterococcus faecalis. Briefly: Disruption of preformed biofilm in Enterococcus faecalis assessed as reduction in bacterial density at 32 times of MIC measured after 24 hrs by SYTO 9 staining based confocal laser scanning microscopic analysis. Format: functional, organism-based.
In data set [2] the test system is Enterococcus faecalis. Briefly: Induction of ROS-dependent oxidative stress in Enterococcus faecalis assessed as decrease in GSH activity at 32 microg/ml (reference value: 1.34 %). Type of data set: functional. The settings on record: dose 32 µg/ml. Set-up: scale not given: the % may be the effect or the level left.
The nature of data set [3]: Hemolytic activity in sheep RBC assessed as hemolysis at 1280 microg/ml incubated for 1 hrs by microplate reader analysis relative to control. Type of data set: toxicity, cell-based, Ovis aries, Erythrocyte. Conditions: sheep red blood cells, dose 1280 µg/ml, read-out: Activity.
Data set [4] relates to Enterococcus faecalis. In words: Antibacterial activity against Enterococcus faecalis assessed as inhibition of bacterial growth incubated for 16 to 18 hrs in presence of 50% plasma by dilution method. Format: functional. Conditions: time 16-18 hrs.
The test system of data set [5] is Enterococcus faecalis. In words: Antibacterial activity against Enterococcus faecalis assessed as inhibition of bacterial growth at 0.5 times of MIC incubated for 15 days by bacterial resistance development assay. Format: functional, organism-based. The settings on record: time 15.0 day.
Data set [6] relates to Cell membrane. Briefly: Induction of cell membrane damage in Enterococcus faecalis assessed as nucleic acid leakage at 8 times of MIC incubated for 2 hrs by fluorescence spectrophotometric analysis. Format: subcellular.
The subject of data set [7] is HeLa. Briefly: Cytotoxicity against human HeLa cells assessed as increase in fluorescence intensity at 1 to 16 microg/ml by vesicle leakage assay. Type of data set: toxicity, cell-based. Conditions: dose 1-16 µg/ml.
Data set [8] in a line: Hemolytic activity in sheep RBC assessed as hemolysis incubated for 1 hrs by microplate reader analysis. Format: toxicity, cell-based, Ovis aries, Erythrocyte. Conditions: sheep red blood cells.
Data set [9] relates to Enterococcus faecalis. In words: Post-antibiotic affect in Enterococcus faecalis assessed as reduction in growth rate at 8 times of MIC measured after 1 hrs. Type of data set: functional, organism-based.
In data set [10] the test system is Enterococcus faecalis. Briefly: Bactericidal activity against Enterococcus faecalis assessed as reduction in bacterial count at 4 times of MIC measured within 10 hrs by time-kill kinetics analysis. Type of data set: functional.
Data set [11] deals with Enterococcus faecalis. In words: Antibacterial activity against Enterococcus faecalis assessed as inhibition of bacterial growth incubated for 16 to 18 hrs in presence of 50% MHB by dilution method. Format: functional. Conditions: time 16-18 hrs.
The test system of data set [12] is Enterococcus faecalis. In words: Antibacterial activity against Enterococcus faecalis ATCC 29212 assessed as inhibition of bacterial growth incubated for 16 to 18 hrs by microbroth dilution method. Type of data set: functional. The settings on record: time 16-18 hrs, read-out: MIC100.
In data set [13] the test system is Cell membrane. In words: Induction of cell membrane damage in Enterococcus faecalis assessed as nucleic acid leakage at 32 times of MIC incubated for 2 hrs by fluorescence spectrophotometric analysis. Format: subcellular.
In data set [14] the test system is Enterococcus faecalis. In words: Induction of ROS accumulation in Enterococcus faecalis assessed as fluorescence intensity at 8 times of MIC incubated for 30 mins by DCFH-DA staining based microplate reader analysis. Format: functional. The settings on record: 0.5 h.
Data set [15] deals with Enterococcus faecalis. In words: Induction of ROS accumulation in Enterococcus faecalis assessed as increase in fluorescence intensity at 8 times of MIC incubated for 30 mins in presence of NAC by DCFH-DA staining based microplate reader analysis. Format: functional, organism-based.
The subject of data set [16] is Enterococcus faecalis. Briefly: Antipersister-activity against in Enterococcus faecalis assessed as log reduction in persistent cells at 32 times of MIC preincubated with 100 times of MIC of rifampicin for 24 hrs followed by compound addition and measured after 8 hrs by drop plate counting method. Type of data set: functional.
Data set [17] is described as follows: Cytotoxicity against human HeLa cells assessed as cell viability at 64 microg/ml incubated for 24 hrs by CCK8 assay relative to control. Format: toxicity, cell-based. Conditions: at 64 µg/mL, read-out: Activity.
Data set [18] deals with Staphylococcus aureus. In words: Antibacterial activity against Staphylococcus aureus ATCC 29213 assessed as inhibition of bacterial growth incubated for 16 to 18 hrs by microbroth dilution method. Format: functional. Conditions: time 16-18 hrs, read-out: MIC100.
Data set [19] concerns Enterococcus faecalis. In words: Antibacterial activity against Enterococcus faecalis assessed as post-antibiotic effect at 8 times of MIC measured up to 8 hrs. Type of data set: functional.
Data set [20] deals with Enterococcus faecalis. In words: Post-antibiotic affect in Enterococcus faecalis assessed as reduction in growth rate at 16 times of MIC measured after 1 hrs. Type of data set: functional, organism-based.
The nature of data set [21]: Selectivity ratio of MIC for antibacterial activity against Enterococcus faecalis assessed as inhibition of bacterial growth measured after 3 hrs in presence of 50% plasma to MIC for antibacterial activity against Enterococcus faecalis assessed as inhibition of bacterial growth assessed as inhibition of bacterial growth measured after 16 to 18 hrs. Type of data set: functional.

The test system of data set [22] is Cell membrane. In words: Induction of cell membrane damage in Enterococcus faecalis assessed as nucleic acid leakage at 16 times of MIC incubated for 2 hrs by fluorescence spectrophotometric analysis. Format: subcellular.
The test system of data set [23] is Enterococcus faecalis. In words: Antibacterial activity against Enterococcus faecalis assessed as inhibition of bacterial growth incubated for 3 hrs in presence of 50% MHB by dilution method. Format: functional, organism-based.
For data set [24], the system named is Stenotrophomonas maltophilia. In words: Antibacterial activity against Stenotrophomonas maltophilia ATCC 17808 assessed as inhibition of bacterial growth incubated for 16 to 18 hrs by microbroth dilution method. The settings on record: time 16-18 hrs, read-out: MIC100. Type of data set: functional.
In data set [25] the test system is Escherichia coli. Briefly: Antibacterial activity against Escherichia coli ATCC 25922 assessed as inhibition of bacterial growth incubated for 16 to 18 hrs by microbroth dilution method. Format: functional. Conditions: time 16-18 hrs, read-out: MIC100.
Data set [26] concerns Enterococcus faecalis. Briefly: Disruption of preformed biofilm in Enterococcus faecalis assessed as bacterial survival rate at 32 times of MIC measured after 24 hrs relative to control. Format: functional.
Data set [27] deals with Enterococcus faecalis. Briefly: Antibacterial activity against Enterococcus faecalis assessed as inhibition of bacterial growth incubated for 16 to 18 hrs in presence of 50% serum by dilution method. Format: functional. Conditions: time 16-18 hrs.
For data set [28], the system named is HeLa. In words: Cytotoxicity against human HeLa cells assessed as increase in red fluorescence at 32 microg/ml incubated for 24 hrs by calcein-AM/PI staining based fluorescence microscopic analysis. Type of data set: toxicity, cell-based. Conditions: dose 32 µg/ml.
Data set [29] relates to Enterococcus faecalis. In words: Disruption of preformed biofilm in Enterococcus faecalis assessed as bacterial survival rate at 16 times of MIC measured after 24 hrs relative to control. Format: functional.
For data set [30], the system named is Enterococcus faecalis. In words: Antibacterial activity against Enterococcus faecalis assessed as post-antibiotic effect at 16 times of MIC measured up to 8 hrs. Type of data set: functional.
Data set [31] has as its system Cell membrane. Briefly: Induction of cytoplasmic membrane permeability in Enterococcus faecalis assessed as increase in fluorescence intensity at 8 times of MIC by PI staining based analysis.
In data set [32] the test system is Enterococcus faecalis. Briefly: Drug resistance, ratio of MIC for Enterococcus faecalis measured after 5 days to MIC for Enterococcus faecalis measured after 16 to 18 hrs. Format: functional.
Data set [33] relates to Enterococcus faecalis. Briefly: Antibacterial activity against Enterococcus faecalis assessed as inhibition of bacterial growth incubated for 3 hrs in presence of 50% plasma by dilution method. Format: functional.
For data set [34], the system named is Cell membrane. In words: Induction of cytoplasmic membrane depolarization in Enterococcus faecalis assessed as increase in fluorescence intensity by DiSC35 dye based microplate reader analysis.
For data set [35], the system named is Enterococcus faecalis. In words: Drug resistance, ratio of MIC for Enterococcus faecalis measured after 15 days to MIC for Enterococcus faecalis measured after 16 to 18 hrs. Format: functional.
Data set [36] concerns Enterococcus faecalis. Briefly: Induction of ROS-dependent oxidative stress in Enterococcus faecalis assessed as decrease in GSH activity at 8 times of MIC (reference value: 1.34 %). Set-up: scale not given: the % may be the effect or the level left. Type of data set: functional.

Molecules are shown by their SMILES. Values after ≈ are worked out from the molar mass of the structure shown. Active and inactive are the calls of the source. The calls are words filed in the database; no cut-off is given here. Where only a bound is given, the exact number is not on record here.

Regarding `CC(=O)NC[C@H]1CN(c2ccc(N3CCN(C(=O)CN(C)Cc4ccc([N+](=O)[O-])cc4)CC3)c(F)c2)C(=O)O1`, the result in data set [1], in data set [5], in [9], in data set [20] and in [23] was Active. Besides, the Activity was 45.89% in data set [2]; “Active; Small Amount Of Leakage Observed” in data set [6]; “Non-toxic” in data set [7]; ~1 10^4CFU/ml in data set [10]; “Active; Small Amount Of Leakage Observed” in data set [13]; 3.71 log10CFU/ml in data set [16]. The Activity result in data set [22] is on record as “Active; Small Amount Of Leakage Observed”; in data set [26], 0.04%; in [28] it was “Non-toxic”; in [29] it was 0.3%. Also, the hemolysis at 1 h, 1280 microg/ml in [3] came to 3.19%. Also, the MIC in data set [4] is 2 µg/mL; in [11] it was 2 µg/mL; in data set [12], 2 µg/mL (≈ 3.69 µM); in [18] it was 8 µg/mL (≈ 14.7 µM); in data set [24], > 128 µg/mL; in data set [25] it was > 128 µg/mL. In addition, the MIC in [27] is 4 µg/mL; in data set [33], 8 µg/mL. Also, the 50% haemolytic concentration (HC50) at 1 h in data set [8] was > 1280 µg/mL. Also, the Flu intensity in data set [14] is 280 a.u. Also, the result in [15], in [31] and in [34] was inactive. In data set [17], the viability at 24 h, 64 microg/ml came to 59.8%. Moreover, the figures for the PAE in data set [19] and in [30] were 0.44 h and 5.13 h, respectively. Moreover, in data set [21], the Selectivity ratio came out at 4. Moreover, in data set [32], the Ratio was determined as 2.
As for `CCn1cc(C(=O)O)c(=O)c2cc(F)c(N3CCNCC3)cc21` [NORFLOXACIN], the Ratio in data set [35] turned out to be 4.
With `CC(=O)NC[C@H]1CN(c2ccc(N3CCOCC3)c(F)c2)C(=O)O1` [LINEZOLID], the outcome in [6], in data set [9], in data set [13], in data set [20], in data set [22] and in [23] was Active. In addition, the result in data set [33] was Active. In data set [8], the HC50 at 1 h is > 1280 µg/mL. Moreover, the Flu intensity in [14] was determined as 377 a.u. In addition, the Activity was found to be 3.24 log10CFU/ml in data set [16], 0.49% in [26], 1.36% in [29] and 13.01% in [36]. In data set [17], the viability at 24 h, 64 microg/ml was 56.5%. Also, the MIC in data set [18] was 1 µg/mL (≈ 2.96 µM); in data set [24] it was > 128 µg/mL; in data set [25], > 128 µg/mL. Further, the PAE in data set [19] is 0.67 h. For the same compound, the outcome in data set [31] and in data set [34] was inactive.
